Some results are limits rather than exact numbers.

With `COCC(=O)NCC1CCC(Nc2nc3c(s2)CCCc2ccc(F)cc2-3)CC1` (centres undefined), the melting point is 63 to 65 °C.

For `COc1ncc(C(=O)N(C)Cc2cc(C(F)(F)F)cc(C(F)(F)F)c2)c(-c2ccccc2)n1`, the melting point was in the range of 101 to 102 °C.

`OC1CSC(Oc2cccnc2Cl)C(O)C1O` (centres undefined) had a melting point of 153 °C.

Compound `Cc1nn(C)c(N)c1C(=O)Nc1ccccc1C(C)C` yielded a melting point of 144 to 146 °C.

In turn, `COc1cc2c(cc1OC)C1Cc3ccccc3CC(=O)N1CC2` (centres undefined) returned a melting point of 195 to 197 °C.

For the compound `C=CCON1C(=O)c2ccc(Cl)c3c(N4CC[C@H](NC(=O)OC(C)(C)C)C4)cc(Cl)c(c23)C1=O`, the melting point lay in the range of 123 to 125 °C.

On to `CCOC(=O)C[C@H](NC(=O)/C=C/Sc1ccccc1)C(=O)OCC`, for which the melting point is 100 to 102 °C.

In turn, `Cc1ccc(C(=O)c2cc(C)n(C)c2)cc1` yielded a melting point of 117 to 119 °C.

`CCOC(=O)C(=CNC1CCCCC1)C(=O)c1ccc(I)cc1Cl` showed a melting point of 154 to 156 °C.

In the case of `CCCCCCCCCCCCn1nnnc1NC(=O)Nc1c(C(C)C)cccc1C(C)C`, the melting point is 80 to 88 °C.

`CCOc1nn(-c2ccc(C(F)(F)F)cn2)cc1CCCOc1ccc(CCC(=O)O)c(OC)c1` registered a melting point of 120 to 121 °C.

Compound `c1ccc(C(c2ccccc2)(c2ncccn2)n2ccnc2)cc1` returned a melting point of 138 to 143 °C.

`CSc1ccc(C2=C(c3cccc(F)c3)C(=O)C(C)(C)O2)cc1` came in with a melting point of 106 °C.

In turn, `COC(=O)c1c(O)c(-c2ccccc2)nn1C` had a melting point of 88 to 90 °C.

`CCCc1c(OCC(O)CSc2ccc(C(=O)CCC(=O)O)c(F)c2)ccc(C(C)=O)c1O` (centres undefined): the melting point was in the range of 136 to 137 °C.

Take `COC(=O)C1=C(C)NC(C)=C(C(=O)c2ccco2)C1c1ccccc1[N+](=O)[O-]` (centres undefined): the melting point lay in the range of 90 to 92 °C.

In turn, `CC1CN(c2ccc(N)cc2)C(C)CN1CC(O)(Cn1cncn1)c1ccc(Cl)cc1Cl` (centres undefined) had a melting point of 74 to 75 °C.

In turn, `CCNC(=O)Oc1cnn(C(C)(C)C)c1` had a melting point of 77 °C.

Consider `O=C(NC12CC3CC(CC(C3)C1)C2)c1cc(O)c(O)c([N+](=O)[O-])c1`, for which the melting point lay in the range of 207 to 208 °C.

In turn, `FC(F)(F)c1cccc(N2CCN(Cc3n[nH]c4c(Cl)cccc34)CC2)c1` showed a melting point of 133 to 134 °C.

As for `CNc1cccc2c1CCn1cc(-c3ccccc3)nc1C2OC1CCN(C)CC1` (centres undefined), the melting point was 189 °C.

Compound `COc1cccc2nc(C)n(C3CCC(=O)NC3=O)c(=O)c12` (centres undefined) showed a melting point of 274 to 276 °C.

The compound `O=[N+]([O-])c1ccc2c(c1)CN1C(=S)SC[C@@H]1C2` came in with a melting point of 182 °C.

In the case of `COC(=O)c1cc(-c2ccc(OC)c(OC)c2)nn(CC=Cc2ccc(Cl)cc2)c1=O`, the melting point lay within 118 to 119 °C.

`Oc1cc(Cl)cc2c1CCC2` registered a melting point of 56 to 59 °C.

Turning to `CC(=O)c1cc(Oc2ccc(NC(=O)Nc3ccccc3C(F)(F)F)cc2)ncn1`, the melting point was in the range of 149 to 151 °C.

Consider `O=C(O)CCNC(=O)C(=Cc1ccc(Oc2ccccc2)cc1)CS`, for which the melting point came out at 108 °C.

`CC(=O)Nc1ccc(OCC(O)CNC2CCc3ccccc3C2)cc1` (centres undefined) returned a melting point of 133 to 136 °C.

Take `COC(=O)C=CCc1cc(C=CC(=O)OC(C)(C)C)cc(Cc2cccnc2)c1`: the melting point lay within 91 to 93 °C.

The compound `CN(C)c1c(SC(F)(F)F)c(C#N)nn1-c1c(Cl)cc(C(F)(F)F)cc1Cl` showed a melting point of 110 to 111 °C.

Compound `CCCCCCc1ncc(/C=C(\Cc2cccs2)C(=O)O)n1Cc1ccccc1Cl` yielded a melting point of 161 to 163 °C.

Take `O=C1C=C(NC(=O)C(=O)c2cn(Cc3ccc(Cl)cc3)c3ccccc23)CS1`: the melting point fell in the range of 248 to 250 °C.

The compound `Cc1cc(-c2nnc3c4ccccc4c(OCc4nc[nH]n4)nn23)no1` yielded a melting point of 260 to 262 °C.

In turn, `COC(=O)c1cccc(OC(F)(F)C(F)Br)c1` (centres undefined) returned a melting point of 88 to 90 °C.

With `Brc1cncc2cccnc12`, the melting point was in the range of 79 to 81 °C.

`CCc1nc(/C=C/c2cn(-c3ccccc3)nc2OCc2ccc(OCc3nc(-c4cccc([N+](=O)[O-])c4)oc3C)c(OC)c2)cs1` yielded a melting point of 127 to 129 °C.

With `CSc1nc(NCCC(C)C)c2ccnc-2[nH]1`, the melting point lay in the range of 157 to 158 °C.

`CN(C)C1(c2ccccc2)CCC(NC(=S)NCCCc2ccccc2)CC1` (centres undefined) yielded a melting point of 75 to 80 °C.

Regarding `O=C1Cc2cc(-c3cccc(Cl)c3)ccc2N1`, the melting point fell in the range of 169 to 171 °C.

In turn, `Cc1cc(OC(C)C)ccc1N1CCCn2c1nc1c(Cl)ccc(C(OC(F)F)C(F)(F)F)c12` (centres undefined) yielded a melting point of 198 to 204 °C.

On to `CS(=O)(=O)c1ccc(C(=O)C2C(=O)CCCC2=O)c(Cl)c1C1=NOC(Cc2ccccc2)C1` (centres undefined), for which the melting point is 72 to 76 °C.

As to `CN1CCN(CC(=O)O)CC1`, the melting point fell in the range of 158 to 160 °C.

Regarding `C=CCc1c(OC)cc(OC)cc1C(=O)O`, the melting point was in the range of 109 to 111 °C.

The compound `COC1=C(OC)C(=O)C2=C(CCC(CCOc3ccc4ccccc4n3)CC2)C1=O` came in with a melting point of 134 to 136 °C.

With `COc1ccc(C(=O)CCCCCl)cc1S(=O)(=O)Cl`, the melting point lay in the range of 69 to 70 °C.

Take `O=C(NCc1ccccn1)c1ccc(C2=NOC(c3cc(Cl)cc(Cl)c3)(C(F)(F)F)C2)cc1C(F)(F)F` (centres undefined): the melting point was 69 to 70 °C.

In turn, `Cc1cc(Br)ccc1-n1c(CF)nc2ccc(N)cc2c1=O` registered a melting point of 194 to 196 °C.

In the case of `O=c1[nH]c2cc(Cl)cc(OCCNCc3ccccc3)c2[nH]1`, the melting point lay within 192 to 193 °C.

`COc1ccc(C=Cc2ccc([N+](=O)[O-])cc2C(F)(F)F)cc1` came in with a melting point of 120 to 123 °C.

`CCCCCCCCCCCCCCCSCCCO` returned a melting point of 36 to 39 °C.

In turn, `O=C(O)CCc1ccc(CCNC(=S)Cc2ccccc2)cc1` showed a melting point of 210 to 212 °C.

Turning to `Cc1ccc(S(=O)(=O)N2CC(CO)(C(=O)O)C2)cc1`, the melting point is 148 to 150 °C.

`CCOC(=O)c1cn(CC)c2nc3ccccc3n2c1=O` came in with a melting point of 252 to 253 °C.

The compound `CCN1C(=O)C(C)(C)C(=O)N(C)c2cc(OCCCn3c(=O)c(Br)cc4ccccc43)ccc21` gave a melting point of 168 to 169 °C.

Compound `CCc1cc2c(cc1CC)C(=O)C(N=[N+]=[N-])=CC2=O` had a melting point of 74 to 76 °C.

With `CN(CCOc1ccc(C=O)cc1)c1nc2ccccc2o1`, the melting point is 97 to 98 °C.

The compound `OCc1ccccc1SCc1cc2c(cc1O)CCCO2` gave a melting point of 140 to 141 °C.

For the compound `COc1cccc2cc(CN(C)CCNC(=O)C34CC5CC(CC(C5)C3)C4)oc12`, the melting point was in the range of 156 to 158 °C.

Compound `CC(Oc1ccc(Oc2ccc(C(F)(F)F)cc2Cl)cc1)C(=O)N1CCCO1` (centres undefined) came in with a melting point of 66.5 to 67.5 °C.

`CC[C@@H](c1ccccc1)N(Cc1cccc(C(=O)O)c1)S(=O)(=O)c1ccc(Cl)cc1` gave a melting point of 65 to 67 °C.

Consider `COC(=O)c1cccc(NC(=O)c2ccc(OC)c(Nc3cccc(C(F)(F)F)c3)c2)c1`, for which the melting point was 128 to 129 °C.

On to `CC(c1ccccc1)N(C=O)C(C#N)C=O` (single isomer, unassigned; (+)), for which the melting point is 245 °C.

Compound `CC(=O)OCC1OC(n2c(Cl)nc3ccc(Br)cc32)C(OC(C)=O)C1OC(C)=O` (centres undefined) came in with a melting point of 121 to 122 °C.

For `O=C1C2=C(CCCC2)C(=O)N1c1ccc(Br)c(O)c1`, the melting point fell in the range of 247 to 248 °C.

Regarding `Cc1cc(-c2ccc(OC(F)(F)F)cc2)ccc1C1COC(c2c(F)cccc2F)=N1` (centres undefined), the melting point fell in the range of 78.5 to 79 °C.

`Cc1ccc2c(c1)C(=O)CCC21CCC(=O)NC1=O` (centres undefined) returned a melting point of 252 to 254 °C.

As for `CCCN(CCCNc1c(Cl)cn[nH]c1=O)CCOc1cccc2c1OCCO2`, the melting point was 87 to 89 °C.

In the case of `OCCCC(c1c[nH]c2ccccc12)c1c[nH]c2ccccc12`, the melting point lay in the range of 110 to 115 °C.

Consider `Nc1ncc(-c2ccccc2)nc1SC1CCCC1`, for which the melting point fell in the range of 92 to 94 °C.

In turn, `O=[N+]([O-])c1ccc(OCc2ccc(F)cc2)cc1` registered a melting point of 124 to 126 °C.

Compound `CCCc1c(OCCCOc2ccc3c(c2CCC)OC(C(=O)O)(C2CC2C(=O)O)CC3)ccc(C(C)=O)c1O` (centres undefined) yielded a melting point of 138 to 140 °C.

On to `CCN(CC)C(=O)CCc1nc(-c2ccccc2Cl)nc2ccccc12`, for which the melting point stood at 90 °C.

In turn, `Cc1cc(C)c2occ(-c3ccccc3)c2c1` registered a melting point of 131 to 132 °C.

In turn, `Cc1ccc2oc(=O)c(-c3ccccc3)c(OCCN3CCOCC3)c2c1` had a melting point of 96 °C.

Compound `Cc1ccc(COn2c(C)c(C(C)C(=O)O)c3cc4c(cc32)OCO4)cc1` (centres undefined) gave a melting point of 172 to 175 °C.

`Cc1ccc(-c2cn(C)c(-c3ccc4c(c3)C(C)(C)c3ccccc3-4)n2)s1` had a melting point of 188 to 191 °C.

`NCC1Cc2cc(C(F)(F)F)cc(-c3ccsc3)c2O1` (centres undefined) registered a melting point of over 250 °C.

In the case of `N#Cc1nn(-c2c(Cl)cc(C(F)(F)F)cc2Cl)c(N)c1C(=O)C(F)(F)F`, the melting point is 226 °C.

In the case of `O=C(O)C=Cc1ccc(OCC2CN(c3ccccc3)C(=O)O2)cc1` (centres undefined), the melting point fell in the range of 239 to 240 °C.

`O=C(Nc1ccc(C(=O)N2Cc3ccccc3Cc3ccccc32)cc1)c1ccccc1C(F)(F)F` registered a melting point of 191 to 193 °C.

Compound `CC(C)C(NC(=O)OCc1ccccc1)C(=O)NC(Cc1ccccc1)C(O)C(Cc1ccccc1)NC(=O)C(NC(=O)OCc1cccnc1)C(C)C` (centres undefined) showed a melting point of 177 to 178 °C.

For `CCOC(=O)C(C)Oc1ncn(-c2cccc(Br)c2)n1` (centres undefined), the melting point is 83 to 85 °C.

In turn, `Ic1ccc(-c2ccc(I)s2)s1` showed a melting point of 164 °C.

The compound `CC1(C)COC(c2cc3c(O)cccc3o2)=N1` had a melting point of 187 to 188 °C.

As to `CC1=NN(C)C(=O)C1C(=O)Nc1cccc2c1CCC2(C)C` (centres undefined), the melting point worked out at 141 °C.

`Cc1cn(C)c2c1Nc1ccccc1NC2=O`: the melting point turned out to be 184 °C.

In the case of `COC(=O)C1=C(CF)NC(C)=C(C(=O)OC(C)C)C1c1cccc([N+](=O)[O-])c1Cl` (centres undefined), the melting point lay in the range of 156 to 157 °C.

Regarding `Nc1c(OCCNCc2ccccc2)cccc1[N+](=O)[O-]`, the melting point lay within 33 to 60 °C.

With `NS(=O)(=O)c1cccc(NC(=O)c2cnn3c(C(F)F)cc(-c4ccc(Cl)cc4)nc23)c1`, the melting point was found to be 278 °C.

As usually defined, the melting point is the temperature of the solid-liquid transition.

For the origin of these results see a melting point compilation (Tetko et al.; mined from patent text by program, amines drawn as free bases though some values may be those of a salt).
